The text below walks through data of ChEMBL document CHEMBL3046629, “Fungicidal Activities of 2-Methoxy-2-[2-(benzylideneaminooxymethyl)phenyl]-N-methylacetamide Derivatives” (2002).

Active and inactive are the calls of the source. The calls are words filed in the database; no cut-off is given here. Bounds are passed on as bounds.

The test system of assay [1] is Pseudoperonospora cubensis. Nature of the assay: Fungicidal activity against Pseudoperonospora cubensis assessed as cucumber downy mildew disease control at 500 ppm foliar application 24 hr before inoculation onto the adaxial(treated) surface of leaf by preventive manner. Type of assay: functional.
The subject of assay [2] is Pseudoperonospora cubensis. Nature of the assay: Fungicidal activity against Pseudoperonospora cubensis assessed as cucumber downy mildew disease control at 7.8 ppm foliar application 24 hr before inoculation onto the abaxial(treated) surface of leaf by preventive manner. Type of assay: functional.
The subject of assay [3] is Podosphaera fuliginea. The assay can be described thus: Fungicidal activity against Podosphaera fuliginea assessed as cucumber powdery mildew disease control at 7.8 ppm treated on upper surface of leaf 24 hr before inoculation at 23 +/- 2 degC measured after 10 days by preventive manner. Type of assay: functional.
The subject of assay [4] is Pseudoperonospora cubensis. Nature of the assay: Fungicidal activity against Pseudoperonospora cubensis assessed as cucumber downy mildew disease control at 2 ppm foliar application 24 hr after inoculation by curative manner. Type of assay: functional.
The test system of assay [5] is Pseudoperonospora cubensis. The assay can be described thus: Fungicidal activity against Pseudoperonospora cubensis assessed as cucumber downy mildew disease control at 31.3 ppm foliar application 24 hr after inoculation by curative manner. It counts as functional.
For assay [6], the system named is Pseudoperonospora cubensis. The assay can be described thus: Fungicidal activity against Pseudoperonospora cubensis assessed as cucumber downy mildew disease control at 125 ppm foliar application 24 hr before inoculation onto the adaxial(treated) surface of leaf by preventive manner. Type of assay: functional.
Assay [7] relates to Botrytis cinerea. Nature of the assay: Fungicidal activity against Botryotinia fuckeliana assessed as cucumber gray mold disease control at 7.8 ppm treated on upper surface of leaf 24 hr before inoculation at 22 +/- 2 degC measured after 3 days by preventive manner. It counts as functional.
Assay [8] concerns Pseudoperonospora cubensis. The assay can be described thus: Fungicidal activity against Pseudoperonospora cubensis assessed as cucumber downy mildew disease control at 31.3 ppm foliar application 24 hr before inoculation onto the adaxial(treated) surface of leaf by preventive manner. It counts as functional.
In assay [9] the test system is Pseudoperonospora cubensis. Nature of the assay: Fungicidal activity against Pseudoperonospora cubensis assessed as cucumber downy mildew disease control at 500 ppm foliar application 24 hr before inoculation onto the abaxial(treated) surface of leaf by preventive manner. It counts as functional.
Assay [10] concerns Pseudoperonospora cubensis. Nature of the assay: Fungicidal activity against Pseudoperonospora cubensis assessed as cucumber downy mildew disease control at 2 ppm foliar application 24 hr before inoculation onto the adaxial(treated) surface of leaf by preventive manner. It counts as functional.
Assay [11] has as its system Pseudoperonospora cubensis. Nature of the assay: Fungicidal activity against Pseudoperonospora cubensis assessed as cucumber downy mildew disease control at 125 ppm foliar application 24 hr before inoculation onto the abaxial(treated) surface of leaf by preventive manner. Type of assay: functional.
Assay [12] concerns Pseudoperonospora cubensis. Nature of the assay: Fungicidal activity against Pseudoperonospora cubensis assessed as cucumber downy mildew disease control at 31.3 ppm foliar application 24 hr before inoculation onto the abaxial(treated) surface of leaf by preventive manner. Type of assay: functional.
Assay [13] deals with Pseudoperonospora cubensis. The assay can be described thus: Fungicidal activity against Pseudoperonospora cubensis assessed as cucumber downy mildew disease control at 7.8 ppm foliar application 24 hr before inoculation onto the adaxial(treated) surface of leaf by preventive manner. Type of assay: functional.
Assay [14] concerns Pseudoperonospora cubensis. Nature of the assay: Fungicidal activity against Pseudoperonospora cubensis assessed as cucumber downy mildew disease control at 2 ppm foliar application 24 hr before inoculation onto the abaxial(treated) surface of leaf by preventive manner. Type of assay: functional.
For assay [15], the system named is Pseudoperonospora cubensis. Nature of the assay: Fungicidal activity against Pseudoperonospora cubensis assessed as cucumber downy mildew disease control at 7.8 ppm foliar application 24 hr after inoculation by curative manner. Type of assay: functional.
Assay [16] concerns Pseudoperonospora cubensis. Nature of the assay: Fungicidal activity against Pseudoperonospora cubensis assessed as cucumber downy mildew disease control at 125 ppm foliar application 24 hr after inoculation by curative manner. Type of assay: functional.
Assay [17] deals with Pseudoperonospora cubensis. Nature of the assay: Fungicidal activity against Pseudoperonospora cubensis assessed as cucumber downy mildew disease control in field at 100 ppm measured after 9 days of last application. Type of assay: functional.
In assay [18] the test system is Botrytis cinerea. Nature of the assay: Fungicidal activity against Botryotinia fuckeliana assessed as cucumber gray mold disease control at 31.3 ppm treated on upper surface of leaf 24 hr before inoculation at 22 +/- 2 degC measured after 3 days by preventive manner. It counts as functional.
Assay [19] concerns Podosphaera fuliginea. Nature of the assay: Fungicidal activity against Podosphaera fuliginea assessed as cucumber powdery mildew disease control at 31.3 ppm treated on upper surface of leaf 24 hr before inoculation at 23 +/- 2 degC measured after 10 days by preventive manner. Type of assay: functional.
The test system of assay [20] is Pseudoperonospora cubensis. Nature of the assay: Fungicidal activity against Pseudoperonospora cubensis assessed as cucumber downy mildew disease control in field at 400 ppm measured after 9 days of last application. It counts as functional.
The test system of assay [21] is Botrytis cinerea. Nature of the assay: Fungicidal activity against Botryotinia fuckeliana assessed as cucumber gray mold disease control at 125 ppm treated on upper surface of leaf 24 hr before inoculation at 22 +/- 2 degC measured after 3 days by preventive manner. Type of assay: functional.
The subject of assay [22] is Botrytis cinerea. Nature of the assay: Fungicidal activity against Botryotinia fuckeliana assessed as cucumber gray mold disease control at 500 ppm treated on upper surface of leaf 24 hr before inoculation at 22 +/- 2 degC measured after 3 days by preventive manner. Type of assay: functional.
In assay [23] the test system is Podosphaera fuliginea. The assay can be described thus: Fungicidal activity against Podosphaera fuliginea assessed as cucumber powdery mildew disease control at 500 ppm treated on upper surface of leaf 24 hr before inoculation at 23 +/- 2 degC measured after 10 days by preventive manner. It counts as functional.
The subject of assay [24] is Pseudoperonospora cubensis. The assay can be described thus: Fungicidal activity against Pseudoperonospora cubensis assessed as cucumber downy mildew disease control in field at 25 ppm measured after 9 days of last application. Type of assay: functional.
The next assay deals with Phytophthora infestans. The assay can be described thus: Fungicidal activity against Phytophthora infestans assessed as potato late blight disease suppression in field at 100 ppm following 4 applications at 1 week intervals. Type of assay: functional, organism-based.
Assay [25] concerns Podosphaera fuliginea. The assay can be described thus: Fungicidal activity against Podosphaera fuliginea assessed as cucumber powdery mildew disease control at 125 ppm treated on upper surface of leaf 24 hr before inoculation at 23 +/- 2 degC measured after 10 days by preventive manner. Type of assay: functional.

For the molecule `CNC(=O)C(OC)c1ccccc1CO/N=C(\C)c1ccc(OC(F)F)cc1` (racemic), the Activity is listed as 97% in assay [1]; 65% in [2]; 90% in the assay on Podosphaera fuliginea [3]; 25% in [4]; 75% in assay [5]; 97% in assay [6]. Moreover, the Activity with Botrytis cinerea [7] is 50%; in [8], 97%; in assay [9], 97%; in assay [10] it was 97%; in assay [11], 95%; in assay [12], 90%. The Activity in assay [13] is on record as 97%; in assay [14], 30%; in assay [15], 70%; in [16], 75%; in assay [17] it was 52.6%.
For the molecule `CCCCOc1ccc(/C(C)=N/OCc2ccccc2C(OC)C(=O)NC)cc1` (racemic), the Activity in assay [1] is on record as 90%; in the assay with Botrytis cinerea [18], 50%; in the assay on Podosphaera fuliginea [19], 90%; in assay [9], less than 90%.
In the case of `N#Cc1c(Cl)c(Cl)c(Cl)c(C#N)c1Cl` [CHLOROTHALONIL], the Activity in [20] came out at 55.3%.
On to `CCC/C(=N\OCc1ccccc1C(OC)C(=O)NC)c1ccc(Cl)cc1` (racemic), for which the Activity in the assay on Podosphaera fuliginea [3] is listed as 90%; in the assay with Botrytis cinerea [21], 50%; in assay [12] it was 90%; in [13], 90%.
As for `CNC(=O)C(OC)c1ccccc1CO/N=C(/SC)c1ccc(Cl)cc1` (racemic), the Activity in [1] worked out at 100%; in assay [2] it was 40%; in [4], 10%; in the assay on Podosphaera fuliginea [19], 90%; in [5], 60%; in [6], 100%. For the same molecule, the Activity in the assay on Botrytis cinerea [22] turned out to be 50%; in [8], 100%; in assay [9], 97%; in [10], 100%; in [11], 64%; in assay [12] it was 50%. The Activity in [13] was 100%; in assay [14], 20%; in assay [15], 35%; in assay [16] it was 87%.
For `CNC(=O)C(OC)c1ccccc1CO/N=C(\C)c1ccc(C)cc1C` (racemic), the Activity with Botrytis cinerea [18] turned out to be 50%; in the assay with Podosphaera fuliginea [19], 90%; in assay [6], 90%; in assay [9], 90%.
In the case of `CNC(=O)C(OC)c1ccccc1CO/N=C(\C)c1ccc([N+](=O)[O-])cc1` (racemic), the Activity is 90% in assay [1], 50% in the assay with Botrytis cinerea [21], 90% with Podosphaera fuliginea [23] and less than 90% in [9].
As for `CNC(=O)C(OC)c1ccccc1CO/N=C(\C)c1ccc(OC)cc1` (racemic), the Activity in assay [1] came out at 100%; in assay [2], 0%; in assay [4], 0%; in the assay with Podosphaera fuliginea [19] it was 90%; in assay [5], 20%; in assay [6], 100%. The Activity in the assay on Botrytis cinerea [7] is given as 50%; in assay [8], 100%; in [9], 90%; in assay [10], 0%; in assay [11] it was 50%; in assay [12] it was 0%. Besides, the Activity stood at 0% in [13], 0% in assay [14], 0% in assay [15] and 75% in assay [16].
On to `CNC(=O)C(OC)c1ccccc1CO/N=C(/SC)c1ccc(OC(F)F)cc1` (racemic), for which the Activity in assay [1] is listed as 100%; in [2], 80%; in assay [24], 71.4%; in the assay with Botrytis cinerea [18], 50%; in assay [4], 30%; with Podosphaera fuliginea [19] it was 90%. In addition, the Activity is 65% in [5]; 100% in [6]; 100% in [8]; 100% in assay [9]; 100% in assay [10]; 100% in assay [11]. In addition, the Activity in assay [12] was determined as 80%; in assay [13] it was 100%; in [14], 60%; in [15], 40%; in [16] it was 78%; in [17], 81.6%.
As for `CNC(=O)C(OC)c1ccccc1CO/N=C(/SC)c1ccc(C(F)(F)F)cc1` (racemic), the Activity is 100% in [1]; 192% in assay [2]; 62.3% in assay [24]; 90% in the assay on Podosphaera fuliginea [3]; 50% in [4]; 50% in the assay on Botrytis cinerea [21]. Also, the Activity in assay [5] is reported as 95%; in [6] it was 100%; in assay [8], 100%; in assay [9], 100%; in assay [10] it was 100%; in [11], 97%. For the same molecule, the Activity in [12] turned out to be 99%; in [13] it was 100%; in [14], 25%; in assay [15], 79%; in [16], 95%; in assay [17], 96.1%. Moreover, the inhibition result in the assay on Phytophthora infestans is “Active”.
On to `CNC(=O)C(OC)c1ccccc1CO/N=C(/SC)c1ccc(OC)cc1` (racemic), for which the Activity in assay [1] came to 96%; in [2] it was 25%; in assay [4], 25%; in the assay on Botrytis cinerea [21] it was 50%; in [5] it was 65%; in assay [6], 100%. Further, the Activity in the assay with Podosphaera fuliginea [23] is on record as less than 90%; in [8], 100%; in assay [9], 90%; in [10] it was 90%; in [11], 64%; in assay [12] it was 40%. The Activity in assay [13] was 99%; in assay [14], 25%; in assay [15], 25%; in assay [16], 95%.
As for `CNC(=O)C(OC)c1ccccc1COc1ccccc1` (racemic), the Activity is less than 90% in [1], 90% in the assay on Podosphaera fuliginea [25], less than 50% in the assay with Botrytis cinerea [22] and less than 90% in assay [9].
